Assay results published in patent US9456589B2, “Elasmobranch-repelling compounds and methods of use” (priority 2005, dated 2016).
Where “and” joins values, the source holds several entries; their conditions need not be identical. Identical values can stand only once.

How the values were obtained:
[1] = system: captive Cobia and Yellowfin Tuna; assay: Feeding behavior of captive fish in the presence of aldehydes; format: in vivo
Text: Similarly, teleost reef fish, such as Triggerfish and Snappers, have been observed feeding and swimming in a cloud of shark-repelling aldehydes. This behavior is presumed to result from the lack of aldehyde-receptors in the fishes' gustatory system.

[2] = system: nurse sharks; assay: Tonic immobility, Bite Assay; format: in vivo, C. cirratum
Protocol: One bioassay used to observe and measure flight response is the tonic immobility test. Tonic immobility is a state of paralysis that typically occurs when a shark is subject to inversion of its body along the longitudinal axis. This state is called “tonic,” and the shark can remain in this state for up to 15 minutes thereby allowing researchers to observe effects of chemical repellents. The “tonic” state of the shark is first established by releasing seawater in proximity to the “tonic” shark with the same delivery instrument and at the same distance as a “test” repellent compound will be released. Some controls are released with a high flow rate (30 mL/sec) in order to establish that sharks are not awakened by a jet of fluid over their noses. Once behavioral controls are established, a compound or composition that may have a repelling effect is delivered to the shark. […] Using this tonic immobility bioassay researches can quantify the strength of a repellent effect. […]
In Bite Assays, a dose of typically less than 5 mL of 3-methylbutanal was presented directly into the shark's mouth using a pipette. […] Because the delivery was directly into the shark's mouth and responses were generally observed immediately upon delivery, time to response was not recorded.

[3] = system: juvenile lemon and nurse sharks; assay: Tonic immobility, Micropipette Assay, summary over species; format: in vivo; conditions: juvenile lemon and nurse sharks
Protocol: (§1) One bioassay used to observe and measure flight response is the tonic immobility test. Tonic immobility is a state of paralysis that typically occurs when a shark is subject to inversion of its body along the longitudinal axis. This state is called “tonic,” and the shark can remain in this state for up to 15 minutes thereby allowing researchers to observe effects of chemical repellents. The “tonic” state of the shark is first established by releasing seawater in proximity to the “tonic” shark with the same delivery instrument and at the same distance as a “test” repellent compound will be released. Some controls are released with a high flow rate (30 mL/sec) in order to establish that sharks are not awakened by a jet of fluid over their noses. Once behavioral controls are established, a compound or composition that may have a repelling effect is delivered to the shark. If the compound or composition engenders a flight response, the shark will awaken from the tonic state and rapidly attempt to flee the delivered repellent. Using this tonic immobility bioassay researches can quantify the strength of a repellent effect.
A fourth method of delivery was called the “Micropipette Assay” method of delivery. In this method, a very small dose (fraction of a mL) of a test substance was delivered directly into a shark's mouth. […] A response, such as a cough or other notable action of the shark, was usually noted when effective gustatory repellents were delivered directly into a shark's mouth while in tonic immobility.
The Micropipette Assay method has not proven to be a particularly effective method of assaying for a flight response in elasmobranchs. The Micropipette Assay method is, nevertheless, an excellent method for specifying that a gustatory response has occurred. It is effective for specifying a gustatory response because the micropipette delivery method allows direct delivery of an entire bolus of test substance into the mouth of the shark being tested.
An oral dose of no more than 400 microliters was then delivered by micropipette into the mouth of a juvenile nurse shark. Tonic immobility was terminated. For each derivative of butyric acid and each naturally occurring acid listed in Table 9, a first micropipette assay was performed on a juvenile lemon shark with no more than 100 microliters of test acid in an oral dose. A second micropipette assay was then performed on a juvenile nurse shark with no more than 400 microliters of test acid in an oral dose. In each test, tonic immobility was terminated.
In a first set of studies on the effectiveness of carboxylic acids as elasmobranch repellents, each tested substance was subjected to the following protocol. […] An oral dose of no more than 400 microliters was then delivered by micropipette into the mouth of a juvenile nurse shark. Tonic immobility was terminated. […] The data evidences the gustatory repelling activity of carboxylic acids.

[4] = system: blue sharks; assay: Tonic immobility, syringe delivery to the mouth of blue sharks; format: in vivo, Prionace glauca; conditions: two blue sharks, two assays each, 20 mL or less
Text: The sharks had been captured on rod and reel and were held in tonic immobility along a boat.

[5] = system: sharks (lemon, nurse, blacktip, tiger, blacknose pooled); assay: Tonic immobility, Syringe 3/5/10 Assay, summary over species; format: in vivo
Protocol: as §1
In the tonic immobility studies disclosed herein, several different methods were employed for delivery of repelling compounds. A first method for delivery of chemical repellent in tonic immobility studies employed a “Syringe 3/5/10 Assay” method. The “Syringe 3/5/10 Assay” method is so named because a test repellent is delivered to a shark from a distance of about “3” inches with a bolus of about “5” mL with a response to the test repellent considered positive if the shark reacts with a change in behavior within less than about “10” seconds from the time of delivery.
The “3/5/10 Syringe Assay” as employed herein delivered a dose of 5-6 mL of a test chemical repellent from a syringe fixed with a needle having a gauge of about 22 from a distance at least 3 inches in front of a shark. Because the test chemical repellent was delivered at a distance from the shark's nares and mouth, a cloud of test chemical repellent was dispersed over the shark within the water column. The dispersed test repellent was subject to water current direction, dispersion and dilution. As a result, a flight response within 10 seconds was considered a positive repellency response. […] Time from delivery to response is related to the size of the bolus delivered from the syringe, distance of the shark from the syringe and water current.
In Syringe 3/5/10 Assays, 5-6 mL of 3-methylbutanal was delivered at least 3 inches in front of the shark's mouth. A cloud of the repellent dispersed over the shark within the water column. […] As noted above, because the dispersion of the chemical repellent upon delivery is affected by volume of repellent, water current, and other factors, the time between delivery and response was not correlatable with the potency of the repellent.

[6] = system: sharks (lemon, nurse, tiger pooled); assay: Tonic immobility, Hd Syringe Assay, summary over species; format: in vivo; conditions: species pooled
Procedure, shortened: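 Sharks held in tonic immobility by inversion, with seawater sham releases (some at 30 mL/sec) as controls. 3-methylbutanal released slowly by 3 mL syringe (22 gauge) within 3 inches of mouth and nares. Waking/flight response recorded, with time to response where measurable.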

Structure (SMILES): CC(C)CC=O [3-methylbutanal]
- feeding behavior of fish in the presence of the aldehyde [1]: slightly increased
- Bite Y (termination of tonic immobility), trials of trials [2]: each resulting in termination of tonic immobility and 2/2
- Micropipette assays with a behavioral response within tonic immobility [3]: ten
- Micropipette assays with a gustatory response (termination or behavior change) [3]: 16 of 20 and fifteen
- Micropipette assays with no response [3]: five
- Micropipette Y (termination of tonic immobility), trials of trials ([3]; oral dose): five
- response to direct delivery to the mouth [4]: behavioral response (classic mouth-agape response)
- Syringe 3/5/10 Y (termination of tonic immobility), trials of trials [5]: 7/7
- Syringe 3/5/10 Y, percent of trials [5]: 100%
- Hd-Syringe N (no response), trials of trials [6]: one and 1/27
- Hd-Syringe R (behavior response within tonic immobility), trials of trials [6]: 6/27
- Hd-Syringe R, percent of trials [6]: 22%
- Hd-Syringe Y (termination of tonic immobility), trials of trials [6]: 20/27
- Hd-Syringe Y, percent of trials [6]: 74%
